According to article PMC8742467, “Therapeutical interference with the epigenetic landscape of germ cell tumors: a comparative drug study and new mechanistical insights” (Clinical Epigenetics, 2022):

How the values were obtained:
Format in all cases: cell-based, Human
CC (JAR) = experiment: Flow cytometry apoptosis (Annexin V/PI), CC; conditions: EC50, 16 h
Experimental: (§1) For Annexin V/PI staining, cells were washed with Annexin V Binding Buffer before being resuspended in 70 µl Annexin V Binding Buffer and 2.5 μl Annexin V FITC-conjugate (both Miltenyi Biotec, Bergisch Gladbach, Germany) and 15 µg PI (Sigma-Aldrich, Taufkirchen, Germany) and incubated in the dark at room temperature for 15 min. 500 µl of Annexin V Binding Buffer was added before measurement. For the cell cycle analysis, cells were washed with PBS (phosphate buffered saline), fixed by ice cold 70% ethanol and stained with 2 µg/ml PI and 200 µg/ml RNaseA (Quiagen, Hilden, Germany 100 mg/ml) in PBS shortly before every measurement. At least 5 × 10^4 cells were counted and analyzed using the MACSQuant software v 2.13.0.

YST (GCT72) = experiment: Flow cytometry apoptosis (Annexin V/PI), YST; conditions: EC50, 16 h
Experimental: as §1

[1] = system: H2AK119ub in 2102EP cells; experiment: Western blot of histone extracts; conditions: after 48 h of treatment
Experimental: Western Blots were performed as described previously. In total, 20 µg of whole cell protein lysates or 3 µg of histone extract were used for western blotting. β-Actin was used as housekeeper and loading control for whole cell lysates. Western blots of histone extracts were stained with Coomassie Brilliant Blue R 250 (Roth, Karlsruhe, Germany) and total H3 or H4 antibody to verify equal loading. For antibody details, see supplement (Additional file 12: Table S2 D). The ChemiDoc Imaging System (Bio-Rad Laboratories, Feldkirchen, Germany) was used for detection. Pixel density was analyzed using the ‘Image Lab’ software provided by Bio-Rad.

fibroblast control cells = experiment: Flow cytometry apoptosis (Annexin V/PI), fibroblasts; conditions: EC50, 16 h
Experimental: as §1

Row | Compound | apoptosis induction in JAR (CC (JAR)) | apoptosis induction in GCT72 (YST (GCT72)) | H2AK119ub by western blot [1] | apoptosis induction in fibroblast control cells (fibroblast control cells)
1 | CCCc1cc(C)[nH]c(=O)c1CNC(=O)c1cc(-c2ccnc(N3CCN(C)CC3)c2)cc2c1cnn2C(C)C [GSK343] | negligible | negligible |  | 
2 | O=C1C(=Cc2cccnc2)C(=O)c2ccccc21 [PRT4165] |  |  | decreased H2AK119ub | only a weak apoptosis induction
